Laboratory results as given in PubChem BioAssay AID330 (DTP/NCI, 2004).
Values joined by “and” are separate entries in the source; they are usually repeats but may differ in a detail not shown here. Equal entries are not always repeated. Toxic doses and inconclusive results are not listed.

Test system: P388 leukemia ip, CD2F1 mice, survival T/C
Assay: NCI In Vivo Anticancer Drug Screen. Data for tumor model P388 Leukemia (intraperitoneal) in CD2F1 (CDF1) mice
Conditions: endpoint: median survival time, higher = longer survival
How it was run: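 Mice carrying the transplanted tumor received test compound or vehicle. Survival was recorded in each group, and the value is the treated-group measurement divided by that of the vehicle-treated control group.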

[1] = dose: 50.0 mg/kg/injection, schedule: Q01DX009 (ip), vehicle: saline with Tween-80
[2] = dose: 200.0 mg/kg/injection, schedule: Q01DX009 (ip), vehicle: saline with Tween-80
[3] = dose: 400.0 mg/kg/injection, schedule: Q01DX009 (ip), vehicle: saline with Tween-80
[4] = dose: 100.0 mg/kg/injection, schedule: Q04DX002 (ip), vehicle: Klucel (hydroxypropylcellulose) (HPC)
[5] = dose: 60.0 mg/kg/injection, schedule: Q01DX005 (ip), vehicle: saline with Tween-80
[6] = dose: 120.0 mg/kg/injection, schedule: Q01DX005 (ip), vehicle: saline with Tween-80
[7] = dose: 240.0 mg/kg/injection, schedule: Q01DX005 (ip), vehicle: saline with Tween-80
[8] = dose: 60.0 mg/kg/injection, schedule: Q01DX005 (ip), vehicle: Klucel (hydroxypropylcellulose) (HPC)
[9] = dose: 120.0 mg/kg/injection, schedule: Q01DX005 (ip), vehicle: Klucel (hydroxypropylcellulose) (HPC)
[10] = dose: 240.0 mg/kg/injection, schedule: Q01DX005 (ip), vehicle: Klucel (hydroxypropylcellulose) (HPC)
[11] = dose: 50.0 mg/kg/injection, schedule: Q01DX005 (ip), vehicle: saline with Tween-80
[12] = dose: 100.0 mg/kg/injection, schedule: Q01DX005 (ip), vehicle: saline with Tween-80
[13] = dose: 200.0 mg/kg/injection, schedule: Q01DX005 (ip), vehicle: saline with Tween-80
[14] = dose: 100.0 mg/kg/injection, schedule: Q01DX009 (ip), vehicle: saline with Tween-80
[15] = dose: 50.0 mg/kg/injection, schedule: Q01DX005 (ip), vehicle: Klucel (hydroxypropylcellulose) (HPC)
[16] = dose: 100.0 mg/kg/injection, schedule: Q01DX005 (ip), vehicle: Klucel (hydroxypropylcellulose) (HPC)

O=c1c[n+](-c2ccccc2)[nH]o1 was tested, and the T/C (dose: 100.0 mg/kg/injection, schedule: Q04DX003 (ip), vehicle: Klucel (hydroxypropylcellulose) (HPC)) was 109 % of control, the T/C (dose: 200.0 mg/kg/injection, schedule: Q04DX003 (ip), vehicle: Klucel (hydroxypropylcellulose) (HPC)) was 100 % of control and the T/C (dose: 400.0 mg/kg/injection, schedule: Q04DX003 (ip), vehicle: Klucel (hydroxypropylcellulose) (HPC)) was 104 % of control.

[Cl][Pt+2][Cl].[NH-]C1CCCC2CCC[N-]C12 (stereo unspecified) was tested, and the T/C [1] was 154 % of control, the T/C [2] was 174 % of control and 184 % of control and the T/C [3] was 176 % of control.

With Nc1nc(N)c(-c2ccc(Cl)cc2)c(COc2ccc(NC(=O)c3ccc(NC(=O)CCl)cc3)cc2)n1 the T/C (dose: 25.0 mg/kg/injection, schedule: Q01DX001 (ip), vehicle: saline) was 104 % of control, the T/C (dose: 50.0 mg/kg/injection, schedule: Q01DX001 (ip), vehicle: saline) was 107 % of control and the T/C (dose: 100.0 mg/kg/injection, schedule: Q01DX001 (ip), vehicle: saline) was 114 % of control.

C[N+](C)(C[Si](C)(C)C)C1CCCCCCCCCCC1 was tested, and the T/C (dose: 15.0 mg/kg/injection, schedule: Q01DX005 (ip), vehicle: saline with Tween-80) was 102 % of control.

NC(=S)SCCC(=O)N1CCCCC1 was tested, and the T/C (dose: 25.0 mg/kg/injection, schedule: Q04DX002 (ip), vehicle: Klucel (hydroxypropylcellulose) (HPC)) was 101 % of control, the T/C (dose: 50.0 mg/kg/injection, schedule: Q04DX002 (ip), vehicle: Klucel (hydroxypropylcellulose) (HPC)) was 95 % of control and the T/C [4] was 104 % of control and 95 % of control.

COC(=O)c1nnn(-c2cccc(Cl)c2)c1C(=O)c1ccc(Cl)c(Cl)c1 was tested, and the T/C [5] was 100 % of control, the T/C [6] was 87 % of control and the T/C [7] was 88 % of control.

O=C(Nc1ccccc1)c1ccco1 was tested, and the T/C (dose: 100.0 mg/kg/injection, schedule: Q01DX001 (ip), vehicle: Klucel (hydroxypropylcellulose) (HPC)) was 106 % of control, the T/C (dose: 200.0 mg/kg/injection, schedule: Q01DX001 (ip), vehicle: Klucel (hydroxypropylcellulose) (HPC)) was 102 % of control and the T/C (dose: 400.0 mg/kg/injection, schedule: Q01DX001 (ip), vehicle: Klucel (hydroxypropylcellulose) (HPC)) was 96 % of control.

For CC1(C)N=C(NN=C2CCCCC2)SP1(=O)NCC(=O)O (stereo unspecified), the T/C [8] was 101 % of control, the T/C [9] was 100 % of control and the T/C [10] was 101 % of control.

For COc1cc([C@@H]2c3cc4c(cc3[C@H](O)[C@H]3COC(=O)[C@H]23)OCO4)cc(OC)c1OC, the T/C (dose: 0.5 mg/kg/injection, schedule: Q01DX005 (ip), vehicle: Klucel (hydroxypropylcellulose) (HPC)) was 121 % of control, the T/C (dose: 1.0 mg/kg/injection, schedule: Q01DX005 (ip), vehicle: Klucel (hydroxypropylcellulose) (HPC)) was 117 % of control and the T/C (dose: 1.0 mg/kg/injection, schedule: Q01DX005 (ip), vehicle: saline with Tween-80) was 118 % of control. The T/C (dose: 2.0 mg/kg/injection, schedule: Q01DX005 (ip), vehicle: saline with Tween-80) was 121 % of control and the T/C (dose: 8.0 mg/kg/injection, schedule: Q01DX005 (ip), vehicle: Klucel (hydroxypropylcellulose) (HPC)) was 152 % of control.

For CNC(=O)OCc1nn(-c2ccccc2)c(C)c1COC(=O)NC, the T/C (dose: 12.5 mg/kg/injection, schedule: Q01DX009 (ip), vehicle: distilled water + Tween-80) was 97 % of control, the T/C (dose: 25.0 mg/kg/injection, schedule: Q01DX009 (ip), vehicle: distilled water + Tween-80) was 97 % of control and the T/C (dose: 50.0 mg/kg/injection, schedule: Q01DX009 (ip), vehicle: distilled water + Tween-80) was 97 % of control. The T/C (dose: 100.0 mg/kg/injection, schedule: Q01DX009 (ip), vehicle: distilled water + Tween-80) was 92 % of control and the T/C (dose: 200.0 mg/kg/injection, schedule: Q01DX009 (ip), vehicle: distilled water + Tween-80) was 92 % of control.

With CC(=O)Nc1cc(S(=O)(=O)O)cc2c(N=Nc3ccc(C(=O)Nc4ccc(N=Nc5ccc(S(=O)(=O)O)cc5)cc4)cc3)c(S(=O)(=O)O)cc(O)c12 the T/C [11] was 93 % of control, the T/C [12] was 90 % of control and the T/C [13] was 101 % of control.

In the case of CO[C@@]1([C@@H](Cl)c2ccccc2)C(=O)N(C)/C(=C\c2ccccc2)C(=O)N1C, the T/C [8] is reported as 105 % of control, the T/C [9] is reported as 92 % of control and the T/C [10] is reported as 97 % of control.

For O=C(Nc1ccc(-c2cn3ccccc3n2)cc1)c1ccccc1O, the T/C [1] was 88 % of control, the T/C [14] was 87 % of control and the T/C [2] was 101 % of control.

Nc1nc(-c2cccc3ccccc23)cc2ccccc12 was tested, and the T/C (dose: 12.5 mg/kg/injection, schedule: Q01DX009 (ip), vehicle: water) was 124 % of control, the T/C (dose: 100.0 mg/kg/injection, schedule: Q01DX009 (ip), vehicle: water) was 150 % of control and the T/C (dose: 200.0 mg/kg/injection, schedule: Q01DX009 (ip), vehicle: water) was 166 % of control.

For OCCCN1CCCCC1CO (stereo unspecified), the T/C [1] was 116 % of control and the T/C [2] was 150 % of control.

For COCCN1C(N)=C(C#N)N=C2CCCC(N=C(C#N)C#N)=C21, the T/C [11] was 100 % of control, the T/C [12] was 107 % of control and the T/C [13] was 101 % of control.

In the case of COc1ccc(C(=O)CCS(=O)(=O)CCC(=O)c2ccc(OC)cc2)cc1, the T/C (dose: 100.0 mg/kg/injection, schedule: Q04DX003 (ip), vehicle: saline) is reported as 93 % of control, the T/C (dose: 200.0 mg/kg/injection, schedule: Q04DX003 (ip), vehicle: saline) is reported as 91 % of control and the T/C (dose: 400.0 mg/kg/injection, schedule: Q04DX003 (ip), vehicle: saline) is reported as 91 % of control.

With CN(C)CCNc1cccc2oc3ccc(O)cc3c(=O)c12 the T/C (dose: 25.0 mg/kg/injection, schedule: Q01DX005 (ip), vehicle: Klucel (hydroxypropylcellulose) (HPC)) was 101 % of control, the T/C [15] was 107 % of control and the T/C [16] was 110 % of control. The T/C (dose: 200.0 mg/kg/injection, schedule: Q01DX005 (ip), vehicle: Klucel (hydroxypropylcellulose) (HPC)) was 114 % of control.

In the case of O=C1/C(=C/c2ccc3c(c2)OCO3)SC(=S)N1c1ccc(Cl)c(Cl)c1, the T/C [15] is reported as 103 % of control and the T/C [16] is reported as 100 % of control.

For Fc1cccc(F)c1C(Nc1nncs1)Nc1nncs1, the T/C [5] was 108 % of control, the T/C [6] was 109 % of control and the T/C [7] was 160 % of control.

For O=C(Nc1cccc(Cl)c1)N1CC1, the T/C [1] was 105 % of control and the T/C [14] was 113 % of control.

O=C(Nc1cccc(Cl)c1)/C(Cl)=C1/Sc2ccccc2NC1=O was tested, and the T/C [11] was 105 % of control, the T/C [12] was 98 % of control and the T/C [13] was 98 % of control.

CCCCCc1nnc2n1N=C(c1ccc(Cl)cc1)CS2 was tested, and the T/C [5] was 100 % of control, the T/C [6] was 92 % of control and the T/C [7] was 91 % of control.

Nc1nc2c(s1)CCC2 was tested, and the T/C [1] was 118 % of control, the T/C [14] was 104 % of control and the T/C [2] was 93 % of control.

In the case of Cn1c2ccccc2c(=O)c2cc(NC(=O)/C=C/C(=O)Nc3ccc4c(c3)c(=O)c3ccccc3n4C)ccc21, the T/C [11] is reported as 102 % of control, the T/C [12] is reported as 105 % of control and the T/C [13] is reported as 106 % of control.

In the case of CC(=O)OCC(=O)[C@@]1(O)CC[C@H]2[C@@H]3CCC4=CC(=O)CC[C@]4(C)[C@@]3(Cl)[C@@H](O)C[C@@]21C, the T/C (dose: 88.0 mg/kg/injection, schedule: Q04DX003 (ip), vehicle: saline with Tween-80) is reported as 123 % of control, the T/C [14] is reported as 118 % of control and the T/C (dose: 132.0 mg/kg/injection, schedule: Q04DX003 (ip), vehicle: saline with Tween-80) is reported as 123 % of control. For the same compound, the T/C [2] was 90 % of control, the T/C (dose: 200.0 mg/kg/injection, schedule: Q04DX003 (ip), vehicle: saline with Tween-80) was 114 % of control and the T/C (dose: 300.0 mg/kg/injection, schedule: Q04DX003 (ip), vehicle: saline with Tween-80) was 123 % of control. For the same compound, the T/C [3] was 100 % of control and the T/C (dose: 400.0 mg/kg/injection, schedule: Q04DX003 (ip), vehicle: saline with Tween-80) was 109 % of control.

With Cc1cccc(NC(=O)Oc2ccc(Cl)c3cccnc23)c1 the T/C (dose: 50.0 mg/kg/injection, schedule: Q01DX009 (ip), vehicle: Klucel (hydroxypropylcellulose) (HPC)) was 112 % of control, the T/C (dose: 100.0 mg/kg/injection, schedule: Q01DX009 (ip), vehicle: Klucel (hydroxypropylcellulose) (HPC)) was 102 % of control and the T/C (dose: 200.0 mg/kg/injection, schedule: Q01DX009 (ip), vehicle: Klucel (hydroxypropylcellulose) (HPC)) was 114 % of control.

For CP12(OC(C(F)(F)F)(C(F)(F)F)c3ccccc31)OC(C(F)(F)F)(C(F)(F)F)c1ccccc12, the T/C [4] was 100 % of control, the T/C (dose: 200.0 mg/kg/injection, schedule: Q04DX002 (ip), vehicle: Klucel (hydroxypropylcellulose) (HPC)) was 101 % of control and the T/C (dose: 400.0 mg/kg/injection, schedule: Q04DX002 (ip), vehicle: Klucel (hydroxypropylcellulose) (HPC)) was 96 % of control.

With COc1ccc2c(C)cc(NNC(N)=S)nc2c1 the T/C [15] was 104 % of control and 107 % of control and the T/C [16] was 111 % of control and 120 % of control.
